According to the supplement of paper PMC12490022:
± gives the uncertainty stated by the source.

What follows are compounds tested on ozone (assay: apparent second-order rate constant for reaction with ozone (kapp,O3) (M-1 s-1); higher = faster oxidation by ozone). Conditions: pH 7; temperature: 22 C; OH radical scavenger: tBuOH 80 mM; phosphate 4 mM.
Protocol: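 Apparent second-order rate constants for reaction with ozone at pH 7 were determined by multicompound competition kinetics. Mixtures of targets and competitors (10 ug/L each) were ozonated in 4 mM phosphate buffer, pH 7, with 80 mM tBuOH as OH-radical scavenger, at 22 ± 1 °C. Peak-area abatement was measured by HPLC-HRMS/MS and k was derived from ln-ln slopes against competitors with known k (R2 > 0.9, >= 10 points, slope 0.1-10). Experiments were run in triplicate on 3 days; the value is the mean over valid competitors ± SD.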

Structure (SMILES)	apparent second-order rate constant
CNCCCC(C#N)(c1ccc(OC)c(OC)c1)C(C)C (configuration not stated)	2300 ± 200
Cn1c(=O)[nH]c2[nH]c(=O)n(C)c2c1=O [1,7-Dimethyluric acid]	6.6e+07 ± 1.4e+07
Clc1cccc(N2CCNCC2)c1 [1-(3-Chlorophenyl)piperazine]	2.1e+06 ± 400000
Clc1ccc(C(c2ccccc2)N2CCNCC2)cc1 (configuration not stated) [1-(4-Chlorobenzhydryl)piperazine]	7700 ± 630
CC(C(=O)O)c1ccc(C(O)C(C)C)cc1 (configuration not stated) [1-Hydroxyibuprofen]	14.7 ± 1.6
CN1CCN2c3ncccc3Cc3ccccc3C2C1=O (configuration not stated) [1-Oxo-mirtazapine]	64000 ± 14000
O=c1ccn(C2OC(CO)C(O)C2(F)F)c(=O)[nH]1 (configuration not stated) [2'-Deoxy-2',2'-difluorouridine]	562 ± 27
CC=C1N(C)C(C)CC1(c1ccccc1)c1ccccc1 (configuration not stated) [2-Ethylidene-1,5-dimethyl-3,3-diphenylpyrrolidine (EDDP)]	99000 ± 18000
Cc1cc(=O)[nH]c2c1NC(=O)c1cccnc1N2C1CC1 [2-Hydroxynevirapine]	1.56e+07 ± 1.2e+06
CC(CN(C)C)CN1c2ccccc2CCc2cc(O)ccc21 (configuration not stated) [2-Hydroxytrimipramine]	8.7e+07 ± 1.9e+07
Nc1c(I)c(N)c(I)c(C(=O)O)c1I [3,5-Diamino-2,4,6-triiodobenzoic acid]	1.02e+07 ± 700000
N[C@@H](Cc1cc(I)c(O)c(I)c1)C(=O)O [3,5-Diiodo-L-tyrosine]	2.87e+06 ± 220000
COc1cc(Cc2cnc(N)nc2N)cc(O)c1OC [3-Desmethyltrimethoprim]	1.17e+07 ± 900000
Oc1cnc2c(c1)CCc1cc(Cl)ccc1C2=C1CCNCC1 [3-Hydroxydesloratadine]	6.3e+07 ± 1.4e+07
Cc1c(CO)cccc1Nc1ccccc1C(=O)O [3-Hydroxymethylmefenamic acid]	9.3e+07 ± 2e+07
O=C(O)CCNC(=O)c1ccc(Cl)cc1 [3-[(4-Chlorobenzoyl)amino]propanoic acid]	0.194 ± 0.008
O=C(O)Cc1ccccc1Nc1c(Cl)cc(O)cc1Cl [4'-Hydroxydiclofenac]	6.95 ± 0.38
COc1c(CSc2nc3ccc(OC(F)F)cc3[nH]2)[nH]ccc1=O [4'-O-Demethyl-pantoprazole sulfide]	21000 ± 2000
Nc1cc(Cl)c(S(N)(=O)=O)cc1S(N)(=O)=O [4-Amino-6-chlorobenzene-1,3-disulfonamide]	90.5 ± 4.7
Cc1c(N)c(=O)n(-c2ccccc2)n1C [4-Aminoantipyrine]	294000 ± 26000
O=C(c1ccccc1)c1ccc(Cl)cc1 [4-Chlorobenzophenone]	0.58 ± 0.04
COc1cc(Cc2cnc(N)nc2N)cc(OC)c1O [4-Desmethyltrimethoprim]	3.6e+07 ± 86
Cc1c(NC=O)c(=O)n(-c2ccccc2)n1C [4-Formylaminoantipyrine]	61000 ± 14000

Structure (SMILES)	apparent second-order rate constant
CC(N)Cc1ccc(O)cc1 (configuration not stated) [4-Hydroxyamphetamine]	2.48e+06 ± 220000
Oc1ccc(C(F)(F)F)cc1 [4-Trifluoromethylphenol]	1.43e+06 ± 150000
Nc1[nH]c(=O)ncc1F [5-Fluorocytosine]	24300 ± 2500
O=C(O)Cc1cc(O)ccc1Nc1c(Cl)cccc1Cl [5-Hydroxydiclofenac]	6.4e+07 ± 1.4e+07
Nc1ccc(S(=O)(=O)Nc2ccc(O)cn2)cc1 [5-Hydroxysulfapyridine]	1.6e+08 ± 3e+07
CC(=O)OC1C=CC2C3Cc4ccc(O)c5c4C2(CCN3C)C1O5 (configuration not stated) [6-Acetylmorphine]	1.29e+07 ± 1.1e+06
C/C(=C\Cc1c(O)c(C)c2c(c1O)C(=O)OC2)CCC(=O)O [6-O-Desmethyl mycophenolic acid]	9.2e+07 ± 2e+07
CN1CCN2c3ncc(O)cc3Cc3ccccc3C2C1 (configuration not stated) [8-Hydroxymirtazapine]	5.4e+07 ± 1.2e+07
O=C1Nc2c(CO)ccnc2N(C2CC2)c2ncccc21 [12-Hydroxynevirapine]	392 ± 21
Nc1nc(NC2CC2)c2ncn(C3C=CC(CO)C3)c2n1 (configuration not stated) [Abacavir]	8.8e+06 ± 600000
COc1ccc2c(c1)c(CC(=O)OCC(=O)O)c(C)n2C(=O)c1ccc(Cl)cc1 [Acemethacin]	1.04e+06 ± 86000
COCCCOc1cc(CC(CC(N)C(O)CC(C(=O)NCC(C)(C)C(N)=O)C(C)C)C(C)C)ccc1OC (configuration not stated) [Aliskiren]	22000 ± 5000
O=c1ncnc2[nH][nH]cc1-2 [Allopurinol]	3.9 ± 0.4
CC[N+]1([O-])CCCC1CNC(=O)c1cc(S(=O)(=O)CC)c(N)cc1OC (configuration not stated) [Amisulpride-N-oxide]	1190 ± 100
CCN1CCCC1CNC(=O)c1cc(S(=O)(=O)CC)c(N)cc1OC (configuration not stated) [Amisulpride]	18000 ± 1600
CCOC(=O)C1=C(COCCN)NC(C)=C(C(=O)OC)C1c1ccccc1Cl (configuration not stated) [Amlodipine]	9.9e+07 ± 2.2e+07
CC1(C)SC(CNC(=O)C(N)c2ccc(O)cc2)NC1C(=O)O (configuration not stated) [Amoxicillin impurity E]	9e+06 ± 1.9e+06
O=C1C=CC(=C2NC=CNC2=O)C=C1 [Amoxicillin impurity F]	3.75e+06 ± 540000
CC1(C)SC2C(NC(=O)C(N)c3ccc(O)cc3)C(=O)N2C1C(=O)O (configuration not stated) [Amoxicillin]	2.2e+06 ± 190000
CC(N)Cc1ccccc1 (configuration not stated) [Amphetamine]	34 ± 4
COC(=O)C1=CCC2CCC1N2C (configuration not stated) [Anhydroecgonine methyl ester]	44000 ± 10000
CC(C)NCC(O)COc1ccc(CC(=O)O)cc1 (configuration not stated) [Atenolol acid]	845 ± 57
CC(C)NCC(O)COc1ccc(CC(N)=O)cc1 (configuration not stated) [Atenolol]	1580 ± 72

Structure (SMILES)	apparent second-order rate constant
CC(C)c1c(C(=O)Nc2ccccc2)c(-c2ccccc2)c(-c2ccc(F)cc2)n1CCC(O)CC(O)CC(=O)O (configuration not stated) [Atorvastatin]	1.5e+08 ± 3e+07
CC[C@H]1OC(=O)[C@H](C)[C@@H](O[C@H]2C[C@@](C)(OC)[C@@H](O)[C@H](C)O2)[C@H](C)[C@@H](O[C@@H]2O[C@H](C)C[C@H]([N+](C)(C)[O-])[C@H]2O)[C@](C)(O)C[C@@H](C)CN(C)[C@H](C)[C@@H](O)[C@]1(C)O [Azithromycin-N-oxide]	1150 ± 74
CCC1OC(=O)C(C)C(OC2CC(C)(OC)C(O)C(C)O2)C(C)C(OC2OC(C)CC(N(C)C)C2O)C(C)(O)CC(C)CN(C)C(C)C(O)C1(C)O (configuration not stated) [Azithromycin]	72000 ± 17000
O=C(c1ccccc1)c1ccccc1 [Benzophenone]	< 0.401
CN1C2CCC1C(C(=O)O)C(OC(=O)c1ccccc1)C2 (configuration not stated) [Benzoylecgonine]	11.3 ± 1.2
CC(=O)OCC(=O)[C@@]1(O)[C@@H](C)C[C@H]2[C@@H]3CCC4=CC(=O)C=C[C@]4(C)[C@@]3(F)[C@@H](O)C[C@@]21C [Betamethasone-21-acetate]	24.4 ± 1.3
CC1CC2C3CCC4=CC(=O)C=CC4(C)C3(F)C(O)CC2(C)C1(O)C(=O)CO (configuration not stated) [Betamethasone]	35.8 ± 1.8
CC(=O)Oc1ccc(C(c2ccc(OC(C)=O)cc2)c2ccccn2)cc1 [Bisacodyl]	2.6 ± 0.3
CC(NC(C)(C)C)C(=O)c1cccc(Cl)c1 (configuration not stated) [Bupropion]	315 ± 15
NC(=O)N1c2ccccc2C2OC2c2ccccc21 (configuration not stated) [Carbamazepine-10,11-epoxide]	< 0.401
CC(Cc1ccc(C(C)C(=O)O)cc1)C(=O)O (configuration not stated) [Carboxyibuprofen]	11.8 ± 1.3
O=C(O)COCC[N+]1([O-])CCN(C(c2ccccc2)c2ccc(Cl)cc2)CC1 (configuration not stated) [Cetirizine-N-oxide]	5670 ± 460
O=C(O)COCCN1CCN(C(c2ccccc2)c2ccc(Cl)cc2)CC1 (configuration not stated) [Cetirizine]	359000 ± 31000
NS(=O)(=O)c1cc2c(cc1Cl)NC=NS2(=O)=O [Chlorothiazide]	1.57 ± 0.17
CN(C)CCCC1(c2ccc(F)cc2)OCc2cc(C#N)ccc21 (configuration not stated) [Citalopram]	12600 ± 1100
CC[C@H]1OC(=O)[C@H](C)[C@@H](O[C@H]2C[C@@](C)(OC)[C@@H](O)[C@H](C)O2)[C@H](C)[C@@H](O[C@@H]2O[C@H](C)C[C@H]([N+](C)(C)[O-])[C@H]2O)[C@](C)(OC)C[C@@H](C)C(=O)[C@H](C)[C@@H](O)[C@]1(C)O [Clarithromycin-N-oxide]	< 0.401
CCC1OC(=O)C(C)C(OC2CC(C)(OC)C(O)C(C)O2)C(C)C(OC2OC(C)CC(N(C)C)C2O)C(C)(OC)CC(C)C(=O)C(C)C(O)C1(C)O (configuration not stated) [Clarithromycin]	65000 ± 15000
CCCC1CC(C(=O)NC(C(C)Cl)C2OC(S(C)=O)C(O)C(O)C2O)N(C)C1 (configuration not stated) [Clindamycin-sulfoxide]	336000 ± 30000
CCCC1CC(C(=O)NC(C(C)Cl)C2OC(SC)C(O)C(O)C2O)N(C)C1 (configuration not stated) [Clindamycin]	749000 ± 65000
CC(C)(Oc1ccc(Cl)cc1)C(=O)O [Clofibric acid]	23 ± 3
O=C(O)C(c1ccccc1Cl)N1CCc2sccc2C1 (configuration not stated) [Clopidogrel carboxylic acid]	175000 ± 14000
